Laboratory results reported in ChEMBL document CHEMBL5465560, “Selectivity Literature for EUbOPEN Chemogenomic Library” (2024).

Legend:
[1] = biological target: Casein kinase I isoform epsilon (Homo sapiens, UniProt P49674); conditions: at 10 µM
[2] = biological target: T1, Histone-arginine methyltransferase CARM1 (Homo sapiens) (UniProt Q86X55); conditions: KMS-12-BM, at 3 µM
T1 sequence (whole entry): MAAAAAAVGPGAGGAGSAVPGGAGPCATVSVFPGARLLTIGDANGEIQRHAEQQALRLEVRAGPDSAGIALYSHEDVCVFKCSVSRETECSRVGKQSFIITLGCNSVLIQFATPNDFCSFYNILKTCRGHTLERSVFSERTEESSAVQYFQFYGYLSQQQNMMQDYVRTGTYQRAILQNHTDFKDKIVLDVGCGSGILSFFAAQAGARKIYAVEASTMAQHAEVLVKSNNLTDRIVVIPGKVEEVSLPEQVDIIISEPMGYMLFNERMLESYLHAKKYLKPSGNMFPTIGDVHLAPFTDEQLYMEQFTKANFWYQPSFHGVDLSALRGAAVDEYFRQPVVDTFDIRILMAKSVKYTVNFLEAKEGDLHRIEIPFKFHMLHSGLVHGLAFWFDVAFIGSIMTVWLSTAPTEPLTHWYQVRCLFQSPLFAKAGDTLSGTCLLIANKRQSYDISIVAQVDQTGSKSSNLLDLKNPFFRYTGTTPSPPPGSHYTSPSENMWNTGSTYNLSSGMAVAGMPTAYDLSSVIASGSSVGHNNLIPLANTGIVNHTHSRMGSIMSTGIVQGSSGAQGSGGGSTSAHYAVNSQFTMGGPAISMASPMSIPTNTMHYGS

[3] = biological target: T2, Mitogen-activated protein kinase kinase kinase 5 (Homo sapiens) (UniProt Q99683); test: Selectivity interaction (Kinase panel (DSF assay)) EUB0001489b MAP3K5
T2 sequence (whole entry): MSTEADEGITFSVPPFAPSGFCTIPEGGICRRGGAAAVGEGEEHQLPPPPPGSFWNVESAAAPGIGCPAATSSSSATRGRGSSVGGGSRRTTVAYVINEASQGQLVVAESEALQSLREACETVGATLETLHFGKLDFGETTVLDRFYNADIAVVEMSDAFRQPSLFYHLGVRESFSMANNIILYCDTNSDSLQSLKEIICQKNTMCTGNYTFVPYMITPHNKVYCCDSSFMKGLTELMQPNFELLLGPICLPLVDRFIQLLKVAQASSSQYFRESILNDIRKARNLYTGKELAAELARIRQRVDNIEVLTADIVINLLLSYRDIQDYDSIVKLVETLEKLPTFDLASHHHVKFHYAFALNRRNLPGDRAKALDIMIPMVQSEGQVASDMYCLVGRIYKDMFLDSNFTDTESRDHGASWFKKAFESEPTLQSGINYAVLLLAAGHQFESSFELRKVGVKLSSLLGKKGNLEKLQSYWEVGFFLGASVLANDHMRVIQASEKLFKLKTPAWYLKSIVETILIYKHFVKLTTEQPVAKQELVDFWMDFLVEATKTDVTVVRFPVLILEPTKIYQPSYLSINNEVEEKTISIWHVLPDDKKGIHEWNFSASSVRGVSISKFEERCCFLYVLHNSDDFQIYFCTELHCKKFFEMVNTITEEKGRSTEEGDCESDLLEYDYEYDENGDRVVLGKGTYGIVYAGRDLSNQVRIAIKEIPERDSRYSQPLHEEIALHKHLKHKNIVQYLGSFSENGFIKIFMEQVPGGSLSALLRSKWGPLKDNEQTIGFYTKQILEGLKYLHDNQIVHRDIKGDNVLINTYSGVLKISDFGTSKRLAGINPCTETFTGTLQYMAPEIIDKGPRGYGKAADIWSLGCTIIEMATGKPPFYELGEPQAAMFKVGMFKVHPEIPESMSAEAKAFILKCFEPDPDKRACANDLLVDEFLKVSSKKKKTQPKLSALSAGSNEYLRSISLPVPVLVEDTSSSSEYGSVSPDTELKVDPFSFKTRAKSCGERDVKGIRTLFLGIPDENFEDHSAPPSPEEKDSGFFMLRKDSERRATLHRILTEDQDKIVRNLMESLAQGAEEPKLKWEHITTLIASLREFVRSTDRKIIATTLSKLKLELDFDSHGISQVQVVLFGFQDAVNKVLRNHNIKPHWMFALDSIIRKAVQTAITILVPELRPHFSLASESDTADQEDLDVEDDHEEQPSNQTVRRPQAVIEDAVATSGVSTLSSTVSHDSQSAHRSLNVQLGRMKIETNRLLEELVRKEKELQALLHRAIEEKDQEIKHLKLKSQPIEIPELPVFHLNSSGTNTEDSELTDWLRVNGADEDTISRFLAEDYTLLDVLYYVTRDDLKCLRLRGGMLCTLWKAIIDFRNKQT

[4] = system: Proto-oncogene tyrosine-protein kinase receptor Ret (Homo sapiens), P07949 [M918T]; test: (§1) Selectivity interaction (KinomeScan (DiscoverX)) EUB0000595a RET; conditions: at 10 µM
[5] = system: Proto-oncogene tyrosine-protein kinase receptor Ret (Homo sapiens), P07949 [V804L]; test: as §1; conditions: at 10 µM
[6] = biological target: Proto-oncogene tyrosine-protein kinase receptor Ret (Homo sapiens, UniProt P07949); test: as §1; conditions: at 10 µM
[7] = biological target: T3, Testis-specific serine/threonine-protein kinase 3 (Homo sapiens) (UniProt Q96PN8); test: Selectivity interaction (KinomeScan (DiscoverX)) EUB0001079a TSSK3; conditions: at 1 µM
T3 sequence (whole entry): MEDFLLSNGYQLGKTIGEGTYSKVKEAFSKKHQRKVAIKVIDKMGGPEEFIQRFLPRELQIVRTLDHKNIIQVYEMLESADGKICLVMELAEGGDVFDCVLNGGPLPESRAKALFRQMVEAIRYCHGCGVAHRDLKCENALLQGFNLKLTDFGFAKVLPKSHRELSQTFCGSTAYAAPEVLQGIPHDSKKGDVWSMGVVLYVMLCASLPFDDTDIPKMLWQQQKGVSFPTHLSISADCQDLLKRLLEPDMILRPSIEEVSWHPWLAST

[8] = biological target: RAC-beta serine/threonine-protein kinase (Homo sapiens) (UniProt P31751); test: Selectivity interaction (ProQinase) EUB0000171b AKT2
[9] = biological target: Death-associated protein kinase 1 (Homo sapiens, UniProt P53355); test: Selectivity interaction (KinomeScan (DiscoverX)) EUB0000092b DAPK1; conditions: at 10 µM
Death-associated protein kinase 1, sequence (P53355 whole entry, looked up): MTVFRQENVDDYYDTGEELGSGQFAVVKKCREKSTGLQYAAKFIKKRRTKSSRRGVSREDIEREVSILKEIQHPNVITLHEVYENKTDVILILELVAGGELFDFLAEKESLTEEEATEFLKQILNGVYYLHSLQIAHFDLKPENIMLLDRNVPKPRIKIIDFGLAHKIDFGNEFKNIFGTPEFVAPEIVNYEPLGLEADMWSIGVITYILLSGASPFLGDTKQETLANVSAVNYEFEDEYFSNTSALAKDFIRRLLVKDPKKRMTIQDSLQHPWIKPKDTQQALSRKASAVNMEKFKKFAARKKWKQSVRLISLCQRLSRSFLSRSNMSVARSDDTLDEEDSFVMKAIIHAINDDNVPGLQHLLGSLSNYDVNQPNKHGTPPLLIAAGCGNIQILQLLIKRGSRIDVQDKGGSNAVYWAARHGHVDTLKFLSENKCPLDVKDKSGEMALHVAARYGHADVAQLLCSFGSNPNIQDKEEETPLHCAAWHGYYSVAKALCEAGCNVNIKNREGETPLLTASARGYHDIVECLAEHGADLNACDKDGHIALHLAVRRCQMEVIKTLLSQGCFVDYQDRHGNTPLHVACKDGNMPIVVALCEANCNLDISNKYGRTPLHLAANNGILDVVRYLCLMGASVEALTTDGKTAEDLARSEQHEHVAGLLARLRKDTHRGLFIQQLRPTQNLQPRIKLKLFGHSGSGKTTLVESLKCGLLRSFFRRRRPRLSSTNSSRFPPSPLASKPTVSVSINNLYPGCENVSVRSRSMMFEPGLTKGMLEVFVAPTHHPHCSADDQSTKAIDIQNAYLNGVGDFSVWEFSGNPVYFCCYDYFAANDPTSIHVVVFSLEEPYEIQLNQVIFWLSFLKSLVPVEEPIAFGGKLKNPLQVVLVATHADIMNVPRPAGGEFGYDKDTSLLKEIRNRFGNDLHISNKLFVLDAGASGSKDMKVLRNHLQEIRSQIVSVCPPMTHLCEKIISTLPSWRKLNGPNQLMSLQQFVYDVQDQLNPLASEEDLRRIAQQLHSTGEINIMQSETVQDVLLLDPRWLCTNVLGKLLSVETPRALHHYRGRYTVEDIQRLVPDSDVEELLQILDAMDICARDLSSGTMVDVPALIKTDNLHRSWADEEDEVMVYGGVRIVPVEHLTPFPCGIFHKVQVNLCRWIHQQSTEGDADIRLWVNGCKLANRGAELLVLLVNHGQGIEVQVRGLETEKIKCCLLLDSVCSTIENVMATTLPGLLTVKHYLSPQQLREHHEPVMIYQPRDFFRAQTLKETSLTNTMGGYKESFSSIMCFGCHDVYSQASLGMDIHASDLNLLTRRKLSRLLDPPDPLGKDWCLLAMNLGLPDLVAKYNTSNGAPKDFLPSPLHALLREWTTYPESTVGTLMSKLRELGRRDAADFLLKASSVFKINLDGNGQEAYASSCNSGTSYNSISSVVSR

RAC-beta serine/threonine-protein kinase (Homo sapiens), sequence (P31751 whole entry): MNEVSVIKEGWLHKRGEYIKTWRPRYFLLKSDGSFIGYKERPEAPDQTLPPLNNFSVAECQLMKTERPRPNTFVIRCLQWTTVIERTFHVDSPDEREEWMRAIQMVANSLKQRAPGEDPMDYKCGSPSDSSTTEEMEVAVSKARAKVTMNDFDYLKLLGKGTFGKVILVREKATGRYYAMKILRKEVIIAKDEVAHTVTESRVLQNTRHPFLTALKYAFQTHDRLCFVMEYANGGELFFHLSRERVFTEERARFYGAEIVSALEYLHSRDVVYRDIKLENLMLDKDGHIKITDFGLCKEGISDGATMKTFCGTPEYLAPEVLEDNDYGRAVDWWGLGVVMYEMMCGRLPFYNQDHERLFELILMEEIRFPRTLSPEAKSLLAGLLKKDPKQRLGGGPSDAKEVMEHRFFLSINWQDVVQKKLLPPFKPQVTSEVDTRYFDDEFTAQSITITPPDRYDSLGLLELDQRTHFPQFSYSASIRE
Proto-oncogene tyrosine-protein kinase receptor Ret, sequence (P07949 whole entry): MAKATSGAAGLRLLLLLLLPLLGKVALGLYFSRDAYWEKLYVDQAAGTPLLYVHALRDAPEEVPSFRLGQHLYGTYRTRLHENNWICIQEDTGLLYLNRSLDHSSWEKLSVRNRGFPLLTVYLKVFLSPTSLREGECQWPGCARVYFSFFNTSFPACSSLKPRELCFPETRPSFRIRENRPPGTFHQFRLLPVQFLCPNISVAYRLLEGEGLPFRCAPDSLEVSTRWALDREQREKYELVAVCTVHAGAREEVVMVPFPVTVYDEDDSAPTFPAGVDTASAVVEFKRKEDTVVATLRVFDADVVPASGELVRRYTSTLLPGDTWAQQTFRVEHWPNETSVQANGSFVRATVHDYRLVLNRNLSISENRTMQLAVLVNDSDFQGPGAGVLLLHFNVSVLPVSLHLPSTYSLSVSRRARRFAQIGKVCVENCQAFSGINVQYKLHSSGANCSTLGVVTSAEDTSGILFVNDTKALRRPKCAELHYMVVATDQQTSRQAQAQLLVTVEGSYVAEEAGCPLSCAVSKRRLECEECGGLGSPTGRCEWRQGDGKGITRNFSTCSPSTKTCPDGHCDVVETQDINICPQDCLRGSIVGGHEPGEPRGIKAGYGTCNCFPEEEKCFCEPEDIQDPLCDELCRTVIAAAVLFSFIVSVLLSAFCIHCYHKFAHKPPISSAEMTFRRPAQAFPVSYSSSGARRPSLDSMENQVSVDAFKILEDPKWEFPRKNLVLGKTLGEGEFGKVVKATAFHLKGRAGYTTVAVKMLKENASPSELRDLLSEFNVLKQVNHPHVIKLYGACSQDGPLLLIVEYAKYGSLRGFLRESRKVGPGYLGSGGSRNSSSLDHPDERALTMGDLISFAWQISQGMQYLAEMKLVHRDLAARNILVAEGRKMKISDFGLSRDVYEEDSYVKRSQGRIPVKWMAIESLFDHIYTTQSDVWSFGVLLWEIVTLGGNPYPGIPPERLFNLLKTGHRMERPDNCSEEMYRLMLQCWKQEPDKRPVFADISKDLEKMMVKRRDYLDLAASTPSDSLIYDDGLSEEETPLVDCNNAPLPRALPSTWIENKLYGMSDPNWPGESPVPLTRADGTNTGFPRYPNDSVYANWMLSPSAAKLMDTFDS
Proto-oncogene tyrosine-protein kinase receptor Ret (Homo sapiens), P07949 [M918T], sequence (P07949 whole entry M918T): as the sequence (P07949 whole entry) above, with M918T counted along it
Casein kinase I isoform epsilon, sequence (P49674 whole entry, looked up, canonical isoform): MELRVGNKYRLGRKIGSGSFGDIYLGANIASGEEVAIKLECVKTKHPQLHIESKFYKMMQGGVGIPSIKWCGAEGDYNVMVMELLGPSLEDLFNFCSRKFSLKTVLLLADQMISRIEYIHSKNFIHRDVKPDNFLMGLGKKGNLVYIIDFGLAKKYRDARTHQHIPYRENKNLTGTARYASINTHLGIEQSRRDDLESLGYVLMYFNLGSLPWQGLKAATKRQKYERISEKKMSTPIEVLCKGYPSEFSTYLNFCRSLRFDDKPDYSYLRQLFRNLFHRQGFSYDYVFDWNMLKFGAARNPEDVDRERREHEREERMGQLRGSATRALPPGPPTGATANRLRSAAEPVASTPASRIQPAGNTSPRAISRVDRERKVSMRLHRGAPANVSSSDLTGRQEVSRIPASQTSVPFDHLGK
Proto-oncogene tyrosine-protein kinase receptor Ret (Homo sapiens), P07949 [V804L], sequence (P07949 whole entry V804L): as the sequence (P07949 whole entry) above, with V804L counted along it

With Cc1cc([C@@H](C)Nc2ccccc2C(=O)O)c2nc(N3CCOCC3)cc(=O)n2c1 [AZD-6482] the % of control [1] was 98%.
With CNCCN1CCC(c2cc(CN(C)C(=O)c3cccc(Oc4ccccc4)c3)ccn2)CC1 the % of growth rate [2] was -8.2%.
Work on CN1CCN(C(=O)c2ccc3cc2OCCOCCNc2ccn4ncc-3c4n2)CC1 yielded a dTM [3] of 3.2 K.
COCC(=O)NC/C=C/c1ccc2ncnc(Nc3ccc(Oc4ccc(C)nc4)c(C)c3)c2c1 [CP-724714] showed a % of control [4] of 77%, a % of control [5] of 100% and a % of control [6] of 87%.
Nc1cnc(N2CCc3cc(S(=O)(=O)Nc4c(F)cc(Cl)cc4F)cc(N4CCCC4=O)c32)nc1 [TP-020n] was tested, and the % of control [7] was 100%.
C=CC(=O)Nc1cccc(C(=O)Nc2ccc(Nc3cc(-c4[nH]c(SC)nc4C)ccn3)cc2)c1 was tested, and the % of control ([8]; at 1 µM) was 92% and the % of control ([8]; at 5 µM) was 78%.
Compound CCC(=O)N1CCN(c2ccc(-n3c(=O)ccc4cnc5ccc(-c6cnc7ccccc7c6)cc5c43)cc2C(F)(F)F)CC1 has a % of control [9] of 96%.
